# How the values were obtained:
# [1] = system: level 9 bleached light brown hair; test: Fourier Transform Infrared Spectroscopy (FTIR, UATR) of treated hair tress; details: 1.5% compound in water, pH4.5; tress soaked at 35° C. for 10 minutes, dried; same tresses as DSC
# Procedure: The same hair tresses were also analysed by Fourier Transform Infrared Spectroscopy (FTIR) (Perkin Elmer Frontier) using an UATR attachment. […] For example, in the FTIR spectra, the peaks at 1853 cm^−1 and 1547 cm^−1 are peaks which are neither present in the AADEG itself or the untreated hair, and conversely peaks at 1888 cm^−1 and 1164 cm^−1 are present in the untreated hair, but not in the treated hair.
# The same hair tresses were also analysed by Fourier Transform Infrared Spectroscopy (FTIR) (Perkin Elmer Frontier) using an UATR attachment. […] For example, in the FTIR spectra, the peaks at 1713 cm^−1 and 1481 cm^−1 are peaks which are neither present in the AADEG itself or the untreated hair, and conversely peaks at 1351 cm^−1 and 1303 cm^−1 are present in the untreated hair, but not in the treated hair.
# [2] = system: level 9 bleached light brown hair; test: Differential Scanning Calorimetry of treated hair tress (denaturation temperature); details: 1.5% compound in water, pH4.5; tress soaked at 35° C. for 10 minutes, dried; DSC 90-180° C. at 4° C. per minute
# Procedure: A 2.5 g tress of level 9 bleached light brown hair was treated with the aforementioned composition as follows.
# a) Soaked the tress in 25 ml solution of the composition at 35° C. for 10 minutes
# b) Excess liquor was squeezed off
# c) Dry the hair tress using a hair drier.
# The hair tress was then evaluated by Differential Scanning Calorimetry (Perkin Elmer DSC6000). Samples (˜5 mg) were cut and placed into a stainless steel pan and 50 microlitres deionised Water was added before sealing. The heating profile was between 90-180° C. at 4° C. per minute.
Structure (SMILES),2nd derivative FTIR spectra of treated hair compared to untreated samples [1],denaturation temperature (Td) of treated hair compared to hair treated with water alone [2]
CC(=O)CC(=O)OCCOCCOC(=O)CC(C)=O [Acetoacetylated Diethylene Glycol],a number of new bonds,significant increase
CC(=O)CC(=O)OCCOC(=O)CC(C)=O [Acetoacetylated Ethylene Glycol],a number of new bonds,significant increase
CC(=O)CC(=O)OCCOCCOCCOC(=O)CC(C)=O [Acetoacetylated Triethylene Glycol],,significant increase

# Reference: patent US20160220466A1, “HAIR TREATMENT COMPOSITION” (Lonza Ltd., priority 2015, published 2016)
